Measured values as given in patent US9884859B2, “Solid form of pyrazolopyridine compound” (SUNSHINE LAKE PHARMA CO., LTD., priority 2013, dated 2018).

What was measured:
[1] = Stability (acceleration) test of crystalline forms, purity by HPLC; type: physicochemical; conditions: for change of appearance, related substance and crystalline form: 30 days; for Overall impurity (%) / impurity A (%) / impurity B (%) / purity (%): HPLC; for appearance: cell wraps ('powder' on next line)
[2] = Hygroscopicity test (Chinese Pharmacopoeia 2010, weight gain by sorption); type: physicochemical; conditions: 25° C.±1° C., about 24 h; for Result (hygroscopic properties): cell wraps: 'Low hygroscopic'; for Weight gain by absorption (%): constant humidity (saturated ammonium chloride or ammonium sulfate)
Experimental: Hygroscopicity Test of Crystalline Form I and Form III of the Compound of Formula (I) 1 Instrument and Regents 1.1 Instrument: 1/100000 Scale, XP205DR 1.2 Test Method According to “Chinese Pharmacopoeia”2010 edition, proportion II, XI X J. 1) Keep a dry glass weighing bottle with stopper (external diameter: 50 mm, height: 15 mm) in 25° C.±1° C. of thermostatic drier with saturated solution of ammonium chloride or ammonium sulfate placing on the bottom, precisely weighed (m1). 2) An appropriate amount of sample was spread in the weighing bottle by a millimeter thick, precisely weighed (m2). 3) An open weighing bottle and lid were kept together in environment of constant temperature and humidity for about 24 h.

[3] = day 0, cell wraps: shows characteristic peaks of the crystalline form
[4] = day 30, 40° C.±2° C./75% RH±5%, Yes = shows characteristic peaks of the crystalline form

stability ([1]; 40° C.±2° C./75% RH±5%)	change of appearance, related substance and crystalline form ([1]; 40° C.±2° C./75% RH±5%)	Overall impurity (%) ([1]; day 0, 40° C.±2° C./75% RH±5%)	impurity A (%) ([1]; day 0, 40° C.±2° C./75% RH±5%)	impurity B (%) ([1]; day 0, 40° C.±2° C./75% RH±5%)	purity (%) ([1]; day 0, 40° C.±2° C./75% RH±5%)	appearance ([1]; day 0, 40° C.±2° C./75% RH±5%)	DSC [1, 3]	XRD [1, 3]	Overall impurity (%) ([1]; day 30, 40° C.±2° C./75% RH±5%)	impurity A (%) ([1]; day 30, 40° C.±2° C./75% RH±5%)	impurity B (%) ([1]; day 30, 40° C.±2° C./75% RH±5%)	purity (%) ([1]; day 30, 40° C.±2° C./75% RH±5%)	DSC [1, 4]	XRD [1, 4]	appearance ([1]; day 30, 40° C.±2° C./75% RH±5%)	Result (hygroscopic properties) [2]	Weight gain by absorption (%) [2] [%]	Compound
stable for a month	did not change	0.44	0.06	0.26	99.6	Off-white	Shows	Shows	0.43	0.06	0.26	99.6	Yes	Yes	Off-white	Low	0.1	COC(=O)N(C)c1c(N)nc(-c2nn(Cc3ccccc3F)c3ncccc23)nc1N [crystalline form I, methyl {4,6-diamino-2-[1-(2-fluorobenzyl)-1H-pyrazolo[3,4-B]pyridine-3-yl]pyrimidine-5-yl}N-methylcarbamate]
stable for a month	did not change	0.65	0.05	0.35	99.4	pale yellow	Show	Show	0.57	0.04	0.34	99.4	Yes	Yes	pale yellow	Low	0.04	COC(=O)N(C)c1c(N)nc(-c2nn(Cc3ccccc3F)c3ncccc23)nc1N [crystalline form III, methyl {4,6-diamino-2-[1-(2-fluorobenzyl)-1H-pyrazolo[3,4-B]pyridine-3-yl]pyrimidine-5-yl}N-methylcarbamate]
